Measurements published in patent publication US20210330611A1, “THERAPY FOR NEUROLOGICAL DISEASES/DISORDERS” (priority 2020, published 2021).
Counter-ions that a name gives are not always drawn. Like-named read-outs stand apart in the source and are kept apart here.

How the values were obtained:
[1] = tested on: fibrin-induced microglia activation; assay: Image-based assay of fibrin-induced microglia activation (HTS and dose response); type: cell-based, rat; conditions: for inhibition at 10 µM: Rattus norvegicus, Microglia, read-out: Fibrin % inhibition
[2] = tested on: fibrin- and LPS-induced microglia activation; assay: cells; type: cell-based, rat
primary rat microglia [3] = tested on: primary rat microglia;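 for Fibrin % cell toxicity: share of dead cells sized under 150 µm2 at 10 µM in fibrin-stimulated microglia HTS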
primary rat microglia [4] = tested on: primary rat microglia; remark: listed apart in the source;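 for Fibrin % cell toxicity: share of dead cells sized under 150 µm2 at 10 µM in fibrin-stimulated microglia HTS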
[5] = tested on: LPS-induced microglia activation; assay: Image-based assay of LPS-induced microglia activation (HTS and dose response); type: cell-based, rat; conditions: for inhibition at 10 µM: Rattus norvegicus, Microglia, read-out: LPS % inhibition
[6] = primary microglia HTS, 10 μM, fibrin-stimulated, cell size >800 μm^2 as marker of activation
[7] = HTS of 1907 compounds, quadrant by fibrin and LPS inhibition
[8] = primary microglia HTS, 10 μM, LPS-stimulated, cell size >800 μm^2 as marker of activation
[9] = primary microglia HTS, fibrin stimulation, compounds at 10 μM
[10] = quadrant by fibrin and LPS inhibition, HTS at 10 μM
[11] = primary microglia HTS, LPS stimulation, compounds at 10 μM

SMILES	Quadrant (FIG. 5b) [2, 7]	inhibition at 10 µM [1, 6] [%]	LPS % cell toxicity (primary rat microglia [3]; rat) [%]	Fibrin % cell toxicity (primary rat microglia [4]; rat) [%]	inhibition at 10 µM [5, 8] [%]	inhibition at 10 µM [1] [%]	Quadrant (FIG. 5b) [2]	inhibition at 10 µM [5] [%]	further results
CC(=O)O[C@H]1C(=O)[C@@]2(C)[C@H]([C@H](OC(=O)c3ccccc3)[C@]3(O)C[C@H](OC(=O)[C@H](O)[C@@H](NC(=O)c4ccccc4)c4ccccc4)C(C)=C1C3(C)C)[C@]1(OC(C)=O)CO[C@@H]1C[C@@H]2O [Taxol, Paclitaxel]	Q4								Fibrin % inhibition [1, 6]: 45%; LPS % cell toxicity (primary rat microglia [3]): 1%; Fibrin % cell toxicity (primary rat microglia [4]): 1%; LPS % inhibition [5, 8]: 19%
CC[C@H]1OC(=O)[C@H](C)C(=O)[C@H](C)[C@@H](O[C@@H]2O[C@H](C)C[C@H](N(C)C)[C@H]2O)[C@](C)(OC)C[C@@H](C)C(=O)[C@H](C)[C@H]2N(CCCCn3cnc(-c4cccnc4)c3)C(=O)O[C@]12C [Telithromycin]	Q4	0	0	1	17				
CN1C(C(=O)Nc2ccccn2)=C(O)c2sccc2S1(=O)=O [Tenoxicam]			0	1		11	Q4	15	
COc1cc2nc(N3CCN(C(=O)C4CCCO4)CC3)nc(N)c2cc1OC (centres unmarked) [Terazosin]			0	1		-1	Q4	9	
CN(C)[C@@H]1C(O)=C(C(N)=O)C(=O)[C@@]2(O)C(O)=C3C(=O)c4c(O)cccc4[C@@](C)(O)[C@H]3C[C@@H]12 [Tetracycline]			0	0		7	Q4	19	
c1ccc(C2CN3CCSC3=N2)cc1 (centres unmarked) [Tetramizole Hydrochloride]			5	8		107	Q2	112	
O=C1CCC(N2C(=O)c3ccccc3C2=O)C(=O)N1 (centres unmarked) [Thalidomide]	Q4	8	1	0	23				
CCCC(C)C1(CC)C(=O)NC(=S)NC1=O (centres unmarked) [Thiopental]			0	0		3	Q4	13	
S=P(N1CC1)(N1CC1)N1CC1 [Thiotepa]	Q4	-15	1	1	15				
CN1CCN(CC/C=C2/c3ccccc3Sc3ccc(S(=O)(=O)N(C)C)cc32)CC1 [Thiothixene]	Q4	-4	0	0	37				
CN(C)C(=S)SSC(=S)N(C)C [Thiram]			64	91					inhibition at 10 µM [1, 9]: 109%; Quadrant (FIG. 5b) [2, 10]: Q2; inhibition at 10 µM [5, 11]: 126%
COc1ccc(CN(CCN(C)C)c2ncccn2)cc1 [Thonzylamine Hydrochloride]	Q4	-21	0	0	6				
Cc1ccc(C(C)C)c(O)c1 [Thymol]	Q4	15	0	1	20				
Clc1ccc2nsnc2c1NC1=NCCN1 [Tizanidine]			1	1		2	Q4	2	
CCCCNC(=O)NS(=O)(=O)c1ccc(C)cc1 [Tolbutamide]			0	1		31	Q4	24	
Cc1ccc(C(=O)c2cc(O)c(O)c([N+](=O)[O-])c2)cc1 [Tolcapone]	Q4	-43	0	1	9				
Cc1c(Cl)cccc1Nc1ccccc1C(=O)O [Tolfenamic Acid]	Q4	3	1	1	36				
Cc1ccc(C(=O)c2ccc(CC(=O)O)n2C)cc1 [Tolmetin]	Q4	48	0	0	28				
CC[C@@]1(O)C(=O)OCc2c1cc1n(c2=O)Cc2cc3c(CN(C)C)c(O)ccc3nc2-1 [Topotecan, Topotecan Hydrochloride]									Fibrin % inhibition [1, 9]: 112%; Quadrant (FIG. 5b) [2, 10]: Q2; LPS % cell toxicity (primary rat microglia [3]): 40%; Fibrin % cell toxicity (primary rat microglia [4]): 63%; LPS % inhibition [5, 11]: 112%

SMILES	Quadrant (FIG. 5b) [2, 7]	inhibition at 10 µM [1, 6] [%]	LPS % cell toxicity (primary rat microglia [3]; rat) [%]	Fibrin % cell toxicity (primary rat microglia [4]; rat) [%]	inhibition at 10 µM [5, 8] [%]	inhibition at 10 µM [1] [%]	Quadrant (FIG. 5b) [2]	inhibition at 10 µM [5] [%]	further results
CN(C)CCOc1ccc(/C(=C(/CCCl)c2ccccc2)c2ccccc2)cc1 [Toremifene]			0	1		14	Q4	19	
CCOC(=O)[C@H](CCc1ccccc1)N[C@@H](C)C(=O)N1[C@H](C(=O)O)C[C@H]2CCCC[C@@H]21 [Trandolapril]			0	1		-5	Q4	15	
NC[C@H]1CC[C@H](C(=O)O)CC1 [Tranexamic Acid]			0	1		-4	Q4	13	
N[C@@H]1C[C@H]1c1ccccc1.N[C@H]1C[C@@H]1c1ccccc1.O=S(=O)(O)O [Tranylcypromine Sulfate]							Q4		Fibrin % inhibition ([1]; 10 µM): 3%; LPS % cell toxicity (primary rat microglia [3]): 0%; Fibrin % cell toxicity (primary rat microglia [4]): 0%; LPS % inhibition ([5]; 10 µM): 17%
O=c1n(CCCN2CCN(c3cccc(Cl)c3)CC2)nc2ccccn12 [Trazodone]			0	0		-10	Q4	-2	
CC1=C(/C=C/C(C)=C/C=C/C(C)=C/C(=O)O)C(C)(C)CCC1 [Tretinon, Tretinoin]	Q4								Fibrin % inhibition [1, 6]: 27%; LPS % cell toxicity (primary rat microglia [3]): 1%; Fibrin % cell toxicity (primary rat microglia [4]): 1%; LPS % inhibition [5, 8]: 34%
Nc1nc(N)c2nc(-c3ccccc3)c(N)nc2n1 [Triamterene]	Q4	40	0	1	24				
NCCNCCNCCN [Triethylenetetramine]			0	1		3	Q4	10	
O=c1[nH]c(=O)n([C@H]2C[C@H](O)[C@@H](CO)O2)cc1C(F)(F)F [Trifluridine]	Q4	10	1	1	16				
OC(CCN1CCCCC1)(c1ccccc1)C1CCCCC1 (centres unmarked) [Trihexyphenidyl]			1	1		5	Q4	14	
CCC(COC(=O)c1cc(OC)c(OC)c(OC)c1)(c1ccccc1)N(C)C (centres unmarked) [Trimebutine]	Q4	-11	0	1	13				
COc1cc(Cc2cnc(N)nc2N)cc(OC)c1OC [Trimethoprim]			0	0		-26	Q4	17	
C[N+](C)(C)CC(=O)O [Trimethyl Glycine]							Q4		Fibrin % inhibition ([1]; 10 µM): −14%; LPS % cell toxicity (primary rat microglia [3]): 0%; Fibrin % cell toxicity (primary rat microglia [4]): 0%; LPS % inhibition ([5]; 10 µM): 22%
Cc1ccc(/C(=C\CN2CCCC2)c2ccccn2)cc1 [Triprolidine]	Q4	-24	0	1	23				
NC(CO)(CO)CO [Tris]							Q4		Fibrin % inhibition ([1]; 10 µM): −18%; LPS % cell toxicity (primary rat microglia [3]): 1%; Fibrin % cell toxicity (primary rat microglia [4]): 1%; LPS % inhibition ([5]; 10 µM): 41%
O=c1[nH]c(=O)n(Cl)c(=O)n1Cl [Troclosene Potassium]			0	1		-8	Q4	1	
N[C@@H](Cc1c[nH]c2ccccc12)C(=O)O [Tryptophan]	Q4	-6	0	1	16				
N[C@@H](Cc1ccc(O)cc1)C(=O)O [Tyrosine]	Q4	-7	1	1	21				
